In ChEMBL document CHEMBL4354826, “Structure-Based Discovery of SD-36 as a Potent, Selective, and Efficacious PROTAC Degrader of STAT3 Protein” (J Med Chem, 2019) one finds Kd data, which are given here for one compound.

pKd: −log10 of the molar value.

The target in this experiment is T1, Signal transducer and activator of transcription 1-alpha/beta (Homo sapiens, UniProt P42224).
T1 sequence (P42224 whole entry): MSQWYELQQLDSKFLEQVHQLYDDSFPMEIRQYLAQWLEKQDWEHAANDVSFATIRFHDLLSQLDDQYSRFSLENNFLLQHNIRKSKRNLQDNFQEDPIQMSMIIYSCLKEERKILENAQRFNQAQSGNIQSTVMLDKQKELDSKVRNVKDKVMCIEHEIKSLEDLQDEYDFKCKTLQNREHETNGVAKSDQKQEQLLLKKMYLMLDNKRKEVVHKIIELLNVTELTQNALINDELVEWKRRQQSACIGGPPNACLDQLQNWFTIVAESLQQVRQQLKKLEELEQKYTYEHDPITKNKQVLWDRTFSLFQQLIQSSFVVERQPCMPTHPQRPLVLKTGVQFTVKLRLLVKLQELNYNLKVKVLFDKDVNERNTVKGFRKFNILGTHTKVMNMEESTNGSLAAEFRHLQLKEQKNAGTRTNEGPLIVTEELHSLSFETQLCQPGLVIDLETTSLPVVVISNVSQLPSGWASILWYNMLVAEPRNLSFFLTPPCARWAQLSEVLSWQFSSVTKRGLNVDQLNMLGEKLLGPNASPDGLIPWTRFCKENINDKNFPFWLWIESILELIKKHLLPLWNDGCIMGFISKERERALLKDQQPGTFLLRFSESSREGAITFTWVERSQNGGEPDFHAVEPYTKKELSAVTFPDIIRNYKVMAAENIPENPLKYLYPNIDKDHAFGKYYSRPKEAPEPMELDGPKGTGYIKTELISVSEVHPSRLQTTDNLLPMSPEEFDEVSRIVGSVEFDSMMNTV
Kind of experiment: Binding affinity to recombinant human His/SUMO-tagged STAT1 (132 to 713 residues) expressed in Escherichia coli Rosetta (DE3) incubated for 1 hr by fluorescence polarization assay.

As for `NC(=O)CC[C@H](NC(=O)[C@@H]1CC[C@@H]2CCN(C(=O)CCCCCC#Cc3cccc4c3CN(C3CCC(=O)NC3=O)C4=O)C[C@H](NC(=O)c3cc4cc(C(F)(F)P(=O)(O)O)ccc4[nH]3)C(=O)N21)C(=O)NC(c1ccccc1)c1ccccc1` (stereo partly specified), the pKd is 6.00.

The pKd is the Kd on a negative log10 scale, so that one unit is a factor of ten.
